From patent US7667048B2, “Green and orange fluorescent labels and their uses” (Aries Associates, Inc., priority 2002, dated 2010) come the findings set out here.

One series can be described thus: Fluorescence excitation and emission spectra. Type of series: physicochemical. Particulars: DMSO/Phosphate buffer. The method, then:
Fluorescence excitation and emission spectra were measured either using Hitachi F-4500 Fluorescence Spectrophotometer in ratio mode with a rhodamine B quantum counter. For fluorescence polarization experiments, two different detection instruments were used, a BMG Polarstar and an LJL Analyst. Molecular brightness measurements in 96-well and 384-well microtiter plates were performed in the following four instruments: (1) the LJL analyst, (2) the Tecan Ultra, (3) the PerSeptive and, (4) Chromagen's own photon counting instrument as described in U.S. patent application Ser. No. 09/552/803 and its continuation in part.
With `CN(C)S(=O)(=O)c1cc(O)c2ccc3c(S(=O)(=O)Nc4ccc(CCCC(=O)ON5C(=O)CCC5=O)cc4)cc(S(=O)(=O)N(C)C)c4ccc1c2c34` [compound 17, 1-Hydroxy-3,6-di(dimethylsulfonamido)-8-(4′-succinimidylbutyrate)-phenylsulfonamido-pyrene], the “fluorescence λ em” value is on record as 553 nm and the “fluorescence λ ex” value came out at 510 nm.

The series is the same for the next values; noted with them: H2O.
As for “3-Hydroxy-6,8-disulfonate-(4′-succinyl-6′-aminohexyl)-pyrene [compound 5]”, the “fluorescence λ em” value worked out at 505 nm and the “fluorescence λ ex” value turned out to be 450 nm.

For “3-Hydroxy-6,8-disulfonate-(4′-succinylamino-6′-isothiocyanyl-hexyl)-pyrene [compound 6]”, the “fluorescence λ em” value turned out to be 503 nm and the “fluorescence λ ex” value worked out at 450 nm.

As for `Nc1cc(O)c2ccc3c(S(=O)(=O)O)cc(S(=O)(=O)O)c4ccc1c2c43` [compound 3, 1-Amino-3-hydroxy-6,8-disulfonate-pyrene], the “fluorescence λ em” value was found to be 492 nm and the “fluorescence λ ex” value is 450 nm.

As for `COC(=O)CCC(=O)Nc1cc(O)c2ccc3c(S(=O)(=O)O)cc(S(=O)(=O)O)c4ccc1c2c34` [compound 4, 3-Hydroxy-6,8-disulfonate-methylsuccinylamino-pyrene], the “fluorescence λ em” value was determined as 492 nm and the “fluorescence λ ex” value was found to be 450 nm.

Still in this series, the particulars now being: MeOH/H2O.
As for “1-Hydroxy-3,6-dimethylsulfonamido-8-sulfonate-pyrene [compound 14]”, the “fluorescence λ em” value is on record as 545 nm and the “fluorescence λ ex” value worked out at 490 nm.

`NCCCC(=O)c1cc(O)c2ccc3c(S(=O)(=O)O)cc(S(=O)(=O)O)c4ccc1c2c34` [compound 7, 3-Hydroxy, 6,8-disulfonate-aminoethylacetyl-pyrene]: the “fluorescence λ em” value came to 502 nm and the “fluorescence λ ex” value is 450 nm.

Consider `CN(C)S(=O)(=O)c1cc(O)c2ccc3c(S(=O)(=O)N(C)CCCN)cc(S(=O)(=O)N(C)C)c4ccc1c2c43` [compound 15, 1-Hydroxy-3,6-di-(dimethylsulfonamido)-8-(3-aminopropyl-methyl-sulfonamido)-pyrene], for which the “fluorescence λ em” value came out at 548 nm and the “fluorescence λ ex” value was 490 nm.

Turning to `CN(C)S(=O)(=O)c1cc(O)c2ccc3c(S(=O)(=O)N(C)CCCN=C=S)cc(S(=O)(=O)N(C)C)c4ccc1c2c43` [compound 16], the “fluorescence λ em” value worked out at 548 nm and the “fluorescence λ ex” value is on record as 490 nm.
